Assay results as given in PubChem BioAssay AID1117339.
The source made the active and inactive calls. No rule for the calls is given here.

system: HCT116 viability, CellTiter-Glo, GSK3B-pretreated; experiment: HCT116 cell viability decrease, GSK3B pretreatment – CellTiter-Glo, IC50, dose response (AID 1117339)

SMILES	IC50
OCCN1CCN(CC/C=C2/c3ccccc3Sc3ccc(C(F)(F)F)cc32)CC1	2890 nM
CCCCCCCCCCCCCC[N+](C)(C)C	754 nM
Cc1ccc([N+](=O)[O-])[c]2c1[O][Hg]2	2220 nM (inactive)
